Drawing on patent US11033506B2, “External skin preparation comprising a core-shell structure” (SEKISUI CHEMICAL CO., LTD., priority 2017, dated 2021), this text covers octanol/water partition coefficient and logD for 2 compounds.

This data set can be described thus: Octanol/water partition coefficient. The conditions noted are these: Log10 (octanol phase/aqueous phase), aqueous buffer solution of pH 7. The format is physicochemical. An excerpt: Specifically, the octanol/water partition coefficient can be determined by calculation using an equation: Octanol/water partition coefficient=Log10 (concentration in an octanol phase/concentration in an aqueous phase).

`O=C1CCc2ccc(OCCCCN3CCN(c4cccc(Cl)c4Cl)CC3)cc2N1` [aripiprazole]: the octanol/water partition coefficient amounted to 4.5. The logD (octanol/aqueous buffer solution (pH 7)) is 4.5.

As to `O=C(O)c1cc(/N=N/c2ccc(S(=O)(=O)Nc3ccccn3)cc2)ccc1O` [sulfasalazine], the octanol/water partition coefficient is on record as 2.3.

The logD is lipophilicity at a set pH, counting ionised and neutral species. Low readings indicate a more hydrophilic compound, high ones a more lipophilic compound.
